Test results reported in patent publication US9751840B2, “R-7-(3-aminomethyl-4-methoxyimino-3-methyl-pyrrolidin-1-yl)-1-cyclopropyl-6-fluoro-4-oxo-acid and L-aspartic acid salt, process for the preparation thereof and pharmaceutical composition comprising the same for antimicrobial” (ARIBIO CO. LTD., priority 2009, dated 2017).
In brackets after ≈: the same amount, converted by molar mass.

What was measured:
[1] = Solubility test; type: physicochemical; settings: room temperature, water
[2] = Stability test in distilled water; type: physicochemical; settings: 30 mg in 100 ml distilled water
[3] = system: Male ICR mice; experiment: Single dose toxicity in mice (LD50); settings: single intraperitoneal dose, observed 14 days
Description: The following experiment was performed in order to observe the degree of toxicity of the L-aspartate according to the present invention.
Male ICR mice were used as experimental animals. 5 male ICR mice were divided into 6 dose groups, respectively and fasted except for water for 24 hours.

Compound | solubility [1] [mg/mL] | Content (%) 60? (after 3 weeks) [2] [%] | Content (%) Initial [2] [%] | Content (%) Room temperature (after 3 weeks) [2] [%] | Lethal dose 50 [3] [mg/kg]
CON=C1CN(c2nc3c(cc2F)c(=O)c(C(=O)O)cn3C2CC2)C[C@@]1(C)CN.Cc1ccc(S(=O)(=O)O)cc1 | 5.78 | 87.3 | 98.6 | 98.1 | –
CON=C1CN(c2nc3c(cc2F)c(=O)c(C(=O)O)cn3C2CC2)C[C@@]1(C)CN.O=CO [Formate (Comparative Example 5)] | 27.5 | 75.1 | 89.7 | 89.7 | –
CON=C1CN(c2nc3c(cc2F)c(=O)c(C(=O)O)cn3C2CC2)C[C@@]1(C)CN [Free form (Comparative Example 2)] | 2.79 (≈ 6.92 mM) | 34.6 | 97.3 | 96.8 | –
CON=C1CN(c2nc3c(cc2F)c(=O)c(C(=O)O)cn3C2CC2)C[C@@]1(C)CN.CS(=O)(=O)O [Methanesulfonate (Comparative Example 4)] | 99.1 | 89.6 | 96.4 | 96.8 | –
CON=C1CN(c2nc3c(cc2F)c(=O)c(C(=O)O)cn3C2CC2)C[C@@]1(C)CN.O=P(O)(O)O [Phosphate (Comparative Example 6)] | 57.8 | 91.2 | 98.1 | 97.9 | 176
